Read-outs that look alike come from different tables or passages of the source.
Tests used:
FGFR4 = FGFR4 (Homo sapiens (Human), UniProt P22455); test: FGFR Enzymatic Assay (FRET peptide phosphorylation), FGFR4; conditions: for FGFR1/FGFR4 IC50 ratio / FGFR2/FGFR4 IC50 ratio / FGFR3/FGFR4 IC50 ratio: IC50 ratio showing FGFR4 selectivity
Description: (§1) The enzymes were purchased from Millipore or Invitrogen.
(§2) GraphPad prism3 was used to analyze the data. The IC50 values were derived by fitting the data to the equation for a sigmoidal dose-response with a variable slope. Y=Bottom+(Top-Bottom)/(1+10^((LogIC50−X)*HillSlope)) where X is the logarithm of concentration and Y is the response.

FGFR3 = FGFR3 (Homo sapiens (Human), UniProt P22607); test: FGFR Enzymatic Assay (FRET peptide phosphorylation), FGFR3
Description: as §1, §2

FGFR1 = FGFR1 (Homo sapiens (Human), UniProt P11362); test: FGFR Enzymatic Assay (FRET peptide phosphorylation), FGFR1; conditions: read-out: FGFR1 IC50
FGFR1, sequence (P11362 22-822): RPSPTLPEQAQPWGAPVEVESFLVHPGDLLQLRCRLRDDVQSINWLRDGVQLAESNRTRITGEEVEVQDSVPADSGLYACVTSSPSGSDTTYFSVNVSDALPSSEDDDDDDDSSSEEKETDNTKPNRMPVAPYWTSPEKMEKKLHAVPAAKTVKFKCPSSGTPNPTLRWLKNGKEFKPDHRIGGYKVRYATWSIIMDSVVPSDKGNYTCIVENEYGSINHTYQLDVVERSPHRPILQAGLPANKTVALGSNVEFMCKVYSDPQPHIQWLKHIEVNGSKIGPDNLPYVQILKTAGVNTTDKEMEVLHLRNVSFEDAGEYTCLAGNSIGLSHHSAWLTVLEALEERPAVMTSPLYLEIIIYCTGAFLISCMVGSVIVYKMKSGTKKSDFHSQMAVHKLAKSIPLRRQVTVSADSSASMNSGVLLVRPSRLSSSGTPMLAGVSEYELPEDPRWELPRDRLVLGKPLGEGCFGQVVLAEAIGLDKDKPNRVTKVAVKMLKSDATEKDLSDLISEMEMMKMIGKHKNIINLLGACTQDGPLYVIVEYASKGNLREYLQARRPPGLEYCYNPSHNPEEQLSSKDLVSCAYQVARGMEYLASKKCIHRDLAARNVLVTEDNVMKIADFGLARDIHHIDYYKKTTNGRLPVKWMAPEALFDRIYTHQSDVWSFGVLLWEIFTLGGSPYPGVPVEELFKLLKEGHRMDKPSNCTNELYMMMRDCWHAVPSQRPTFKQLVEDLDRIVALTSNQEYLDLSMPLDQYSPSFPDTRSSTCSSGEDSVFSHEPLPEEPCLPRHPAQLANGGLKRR
Description: as §1, §2

FGFR2 = FGFR2 (Homo sapiens (Human), UniProt P21802); test: FGFR Enzymatic Assay (FRET peptide phosphorylation), FGFR2
FGFR2, sequence (P21802 22-821): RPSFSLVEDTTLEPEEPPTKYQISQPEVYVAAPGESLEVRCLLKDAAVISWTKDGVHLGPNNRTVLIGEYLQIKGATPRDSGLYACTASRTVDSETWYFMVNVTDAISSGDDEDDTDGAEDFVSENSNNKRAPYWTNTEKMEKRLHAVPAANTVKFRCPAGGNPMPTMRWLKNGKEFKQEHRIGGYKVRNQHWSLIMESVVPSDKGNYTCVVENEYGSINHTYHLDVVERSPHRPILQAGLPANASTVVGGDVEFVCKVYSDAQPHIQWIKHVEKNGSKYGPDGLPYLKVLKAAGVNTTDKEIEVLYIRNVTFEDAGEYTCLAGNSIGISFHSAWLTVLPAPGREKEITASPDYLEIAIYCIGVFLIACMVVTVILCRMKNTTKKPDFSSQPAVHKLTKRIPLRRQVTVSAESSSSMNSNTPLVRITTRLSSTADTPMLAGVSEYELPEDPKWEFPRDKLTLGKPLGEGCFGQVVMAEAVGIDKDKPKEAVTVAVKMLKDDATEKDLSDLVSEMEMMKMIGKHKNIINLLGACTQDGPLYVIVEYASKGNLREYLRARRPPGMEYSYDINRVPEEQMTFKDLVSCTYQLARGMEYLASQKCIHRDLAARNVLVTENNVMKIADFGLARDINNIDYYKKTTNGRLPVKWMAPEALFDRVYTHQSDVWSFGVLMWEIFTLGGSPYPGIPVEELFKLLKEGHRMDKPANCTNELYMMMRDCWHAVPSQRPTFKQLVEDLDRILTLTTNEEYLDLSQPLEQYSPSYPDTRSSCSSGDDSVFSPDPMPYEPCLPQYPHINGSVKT
Description: as §1, §2

[1] = read-out: FGFR4 IC50, pre-incubated for 4 hours
[2] = read-out: FGFR3 IC50, pre-incubated for 4 hours
[3] = read-out: FGFR2 IC50, pre-incubated for 4 hours
[4] = pre-incubated for 5 to 10 minutes
[5] = read-out: FGFR4 IC50, pre-incubated for 5 to 10 minutes
[6] = read-out: FGFR3 IC50, pre-incubated for 5 to 10 minutes
[7] = read-out: FGFR2 IC50, pre-incubated for 5 to 10 minutes

FGFR3, sequence (P22607 23-806): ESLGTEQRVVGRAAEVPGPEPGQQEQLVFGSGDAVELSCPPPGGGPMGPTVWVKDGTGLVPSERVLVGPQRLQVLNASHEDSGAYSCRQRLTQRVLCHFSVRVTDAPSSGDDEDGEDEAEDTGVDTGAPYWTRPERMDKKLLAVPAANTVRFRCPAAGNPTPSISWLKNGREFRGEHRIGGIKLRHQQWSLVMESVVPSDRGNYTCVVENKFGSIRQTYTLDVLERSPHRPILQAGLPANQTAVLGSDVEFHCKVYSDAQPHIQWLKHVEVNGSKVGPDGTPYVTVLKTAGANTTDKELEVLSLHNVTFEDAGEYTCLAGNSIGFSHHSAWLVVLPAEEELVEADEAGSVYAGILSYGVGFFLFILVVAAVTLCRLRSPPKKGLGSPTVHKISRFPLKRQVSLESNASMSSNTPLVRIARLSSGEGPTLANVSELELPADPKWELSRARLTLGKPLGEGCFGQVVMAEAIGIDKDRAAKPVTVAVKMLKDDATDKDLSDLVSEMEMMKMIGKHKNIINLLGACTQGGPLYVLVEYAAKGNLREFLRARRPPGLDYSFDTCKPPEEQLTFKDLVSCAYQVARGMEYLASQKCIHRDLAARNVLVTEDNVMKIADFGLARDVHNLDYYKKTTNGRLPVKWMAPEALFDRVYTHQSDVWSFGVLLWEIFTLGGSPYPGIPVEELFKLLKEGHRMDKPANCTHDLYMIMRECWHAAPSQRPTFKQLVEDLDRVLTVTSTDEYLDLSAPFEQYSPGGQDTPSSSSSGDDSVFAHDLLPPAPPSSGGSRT
FGFR4, sequence (P22455 22-802): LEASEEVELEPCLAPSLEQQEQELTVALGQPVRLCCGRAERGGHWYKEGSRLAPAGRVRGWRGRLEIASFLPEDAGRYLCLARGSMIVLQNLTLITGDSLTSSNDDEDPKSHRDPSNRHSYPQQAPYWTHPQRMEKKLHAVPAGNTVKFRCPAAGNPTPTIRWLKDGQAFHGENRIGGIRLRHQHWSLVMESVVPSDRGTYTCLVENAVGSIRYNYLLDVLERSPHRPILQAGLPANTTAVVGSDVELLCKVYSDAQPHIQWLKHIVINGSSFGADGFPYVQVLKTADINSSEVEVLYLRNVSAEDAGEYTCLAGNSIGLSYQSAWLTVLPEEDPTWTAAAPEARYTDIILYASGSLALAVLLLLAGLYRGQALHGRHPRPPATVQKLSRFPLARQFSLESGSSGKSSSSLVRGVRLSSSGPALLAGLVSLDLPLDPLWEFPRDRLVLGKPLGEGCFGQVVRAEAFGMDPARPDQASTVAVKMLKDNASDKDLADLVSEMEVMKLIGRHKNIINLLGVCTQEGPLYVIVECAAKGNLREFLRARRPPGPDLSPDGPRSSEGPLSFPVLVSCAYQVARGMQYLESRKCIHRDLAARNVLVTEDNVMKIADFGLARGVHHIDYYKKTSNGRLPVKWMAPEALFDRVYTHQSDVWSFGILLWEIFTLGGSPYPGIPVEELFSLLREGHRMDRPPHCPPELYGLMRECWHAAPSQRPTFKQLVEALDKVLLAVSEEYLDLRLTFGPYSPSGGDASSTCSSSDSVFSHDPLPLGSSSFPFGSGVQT

Compound | FGFR1/FGFR4 IC50 ratio (FGFR4; pre-incubated for 4 hours) | FGFR2/FGFR4 IC50 ratio (FGFR4; pre-incubated for 4 hours) | FGFR3/FGFR4 IC50 ratio (FGFR4; pre-incubated for 4 hours) | IC50 (FGFR4; [1]) | IC50 (FGFR3; [2]) | IC50 (FGFR1; pre-incubated for 4 hours) | IC50 (FGFR2; [3]) | FGFR1/FGFR4 IC50 ratio (FGFR4; [4]) | FGFR2/FGFR4 IC50 ratio (FGFR4; [4]) | FGFR3/FGFR4 IC50 ratio (FGFR4; [4]) | IC50 (FGFR4; [5]) | IC50 (FGFR3; [6]) | IC50 (FGFR1; [4]) | IC50 (FGFR2; [7]) | IC50 (FGFR3; FGFR3 IC50 (nM), pre-incubated for 5 to 10 minutes) | IC50 (FGFR3; FGFR3 IC50 (nM), pre-incubated for 4 hours) | IC50 (FGFR2) | IC50 (FGFR4)
C=CC(=O)Nc1cn(CCOC(F)(F)F)nc1-c1cc2c(cn1)CN(c1c(F)c(OC)cc(OC)c1F)C(=O)C21CC1 [Example 33, N-(3-(2′-(2,6-difluoro-3,5-dimethoxyphenyl)-3′-oxo-2′,3′-dihydro-1′H-spiro[cyclopropane-1,4′-[2,7]naphthyridine]-6′-yl)-1-(2-(trifluoromethoxy)ethyl)-1H-pyrazol-4-yl)acrylamide] | >100 | >100 | >100 | < 10 nM | > 200 nM | > 200 nM | > 200 nM | – | – | – | – | – | – | – | – | – | – | –
C=CC(=O)Nc1cnn(Cc2ccon2)c1-c1cc2c(cn1)CN(c1c(F)c(OC)cc(OC)c1F)C(=O)C21CC1 [Example 25, N-(5-(2′-(2,6-difluoro-3,5-dimethoxyphenyl)-3′-oxo-2′,3′-dihydro-1′H-spiro[cyclopropane-1,4′-[2,7]naphthyridine]-6′-yl)-1-(isoxazol-3-ylmethyl)-1H-pyrazol-4-yl)acrylamide] | >100 | >100 | >100 | < 10 nM | > 200 nM | > 200 nM | > 200 nM | – | – | – | – | – | – | – | – | – | – | –
C=CC(=O)Nc1cnn(CCOCC)c1-c1cc2c(cn1)CN(c1c(F)c(OC)cc(OC)c1F)C(=O)C21CC1 [Example 16, N-(5-(2′-(2,6-difluoro-3,5-dimethoxyphenyl)-3′-oxo-2′,3′-dihydro-1′H-spiro[cyclopropane-1,4′-[2,7]naphthyridine]-6′-yl)-1-(2-ethoxyethyl)-1H-pyrazol-4-yl)acrylamide] | >100 | >100 | >100 | < 10 nM | > 200 nM | > 200 nM | > 200 nM | – | – | – | – | – | – | – | – | – | – | –
C=CC(=O)Nc1ccc(C)c(-c2cc3c(cn2)CN(c2c(F)c(OC)cc(OC)c2F)C(=O)C32CC2)c1 [Example 2, N-(3-(2′-(2,6-difluoro-3,5-dimethoxyphenyl)-3′-oxo-2′,3′-dihydro-1′H-spiro[cyclopropane-1,4′-[2,7]naphthyridine]-6′-yl)-4-methylphenyl)acrylamide] | >100 | >100 | >100 | < 10 nM | > 200 nM | > 200 nM | > 200 nM | >100 | >100 | >100 | < 10 nM | > 200 nM | > 200 nM | > 200 nM | – | – | – | –
C=CC(=O)Nc1cc(-c2cc3c(cn2)CN(c2c(F)c(OC)cc(OC)c2F)C(=O)C32CC2)ccc1CN1CCOCC1 [Example 12, N-(5-(2′-(2,6-difluoro-3,5-dimethoxyphenyl)-3′-oxo-2′,3′-dihydro-1′H-spiro[cyclopropane-1,4′-[2,7]naphthyridine]-6′-yl)-2-(morpholinomethyl)phenyl)acrylamide] | >100 | >25 | >10 | < 10 nM | – | > 200 nM | – | >10 | >1 | >1 | < 10 nM | – | > 200 nM | 30 to 200 nM | 30 to 200 nM | 10 to 30 nM | 30 to 200 nM | –
C=CC(=O)Nc1ccc(C#N)c(-c2cc3c(cn2)CN(c2c(F)c(OC)cc(OC)c2F)C(=O)C32CC2)c1 [Example 5, N-(4-cyano-3-(2′-(2,6-difluoro-3,5-dimethoxyphenyl)-3′-oxo-2′,3′-dihydro-1′H-spiro[cyclopropane-1,4′-[2,7]naphthyridine]-6′-yl)phenyl)acrylamide] | >100 | >100 | >100 | < 10 nM | > 200 nM | > 200 nM | > 200 nM | >100 | >100 | >100 | < 10 nM | > 200 nM | > 200 nM | > 200 nM | – | – | – | –
C=CC(=O)Nc1cnn(C[C@@H]2CCOC2)c1-c1cc2c(cn1)CN(c1c(F)c(OC)cc(OC)c1F)C(=O)C21CC1 [Example 28, (S)-N-(5-(2′-(2,6-difluoro-3,5-dimethoxyphenyl)-3′-oxo-2′,3′-dihydro-1′H-spiro[cyclopropane-1,4′-[2,7]naphthyridine]-6′-yl)-1-((tetrahydrofuran-3-yl)methyl)-1H-pyrazol-4-yl)acrylamide] | >100 | >100 | >100 | – | > 200 nM | > 200 nM | > 200 nM | – | – | – | – | – | – | – | – | – | – | 10 to 30 nM
C=CC(=O)Nc1cnn(Cc2ncn(C)n2)c1-c1cc2c(cn1)CN(c1c(F)c(OC)cc(OC)c1F)C(=O)C21CC1 [Example 23, N-(5-(2′-(2,6-difluoro-3,5-dimethoxyphenyl)-3′-oxo-2′,3′-dihydro-1′H-spiro[cyclopropane-1,4′-[2,7]naphthyridine]-6′-yl)-1-((1-methyl-1H-1,2,4-triazol-3-yl)methyl)-1H-pyrazol-4-yl)acrylamide] | >100 | >100 | >100 | < 10 nM | > 200 nM | > 200 nM | > 200 nM | – | – | – | – | – | – | – | – | – | – | –
C=CC(=O)Nc1cnn(C2CCOCC2)c1-c1cc2c(cn1)CN(c1c(F)c(OC)cc(OC)c1F)C(=O)C21CC1 [Example 18, N-(5-(2′-(2,6-difluoro-3,5-dimethoxyphenyl)-3′,-oxo-2′,3′-dihydro-1′H-spiro[cyclopropane-1,4′-[2,7]naphthyridine]-6′-yl)-1-(tetrahydro-2H-pyran-4-yl)-1H-pyrazol-4-yl)acrylamide] | >100 | >50 | >100 | – | > 200 nM | > 200 nM | > 200 nM | – | – | – | – | – | – | – | – | – | – | 10 to 30 nM
C=CC(=O)Nc1cnn(Cc2cccnc2)c1-c1cc2c(cn1)CN(c1c(F)c(OC)cc(OC)c1F)C(=O)C21CC1 [Example 22, N-(5-(2′-(2,6-difluoro-3,5-dimethoxyphenyl)-3′-oxo-2′,3′-dihydro-1′H-spiro[cyclopropane-1,4′-[2,7]naphthyridine]-6′-yl)-1-(pyridin-3-ylmethyl)-1H-pyrazol-4-yl)acrylamide] | >100 | >100 | >100 | < 10 nM | > 200 nM | > 200 nM | > 200 nM | – | – | – | – | – | – | – | – | – | – | –
C=CC(=O)Nc1cnn(Cc2ccnn2C)c1-c1cc2c(cn1)CN(c1c(F)c(OC)cc(OC)c1F)C(=O)C21CC1 [Example 26, N-(5-(2′-(2,6-difluoro-3,5-dimethoxyphenyl)-3′-oxo-2′,3′-dihydro-1′H-spiro[cyclopropane-1,4′-[2,7]naphthyridine]-6′-yl)-1-((1-methyl-1H-pyrazol-5-yl)methyl)-1H-pyrazol-4-yl)acrylamide] | >100 | >50 | >100 | – | > 200 nM | > 200 nM | > 200 nM | – | – | – | – | – | – | – | – | – | – | 10 to 30 nM

Reference: US9580423B2, “Bicyclic heterocycles as FGFR4 inhibitors” (Incyte Corporation, priority 2015, dated 2017)
